Assay results published in US11859248B2, “Nucleic acid modification and identification method” (IMBA—INSTITUT FÜR MOLEKULARE BIOTECHNOLOGIE GMBH, priority 2017, dated 2024).

Tests used:
[1] = tested on: mES cells; assay: HPLC analysis of s^4U-incorporation into total RNA of mES cells after metabolic labeling; format: cell-based, mouse; details: 100 μM s^4U, 24 h labeling
Protocol: (§1) Analysis of s^4U- or s^6G-incorporation into total RNA following metabolic labeling was performed as previously described by Spitzer et al. (Meth Enzymol. 539, 113-161 (2014)).
(§2) mES cells were seeded the day before the experiment at a density of 10^5 cells/ml in 10 cm dishes. s^4U-metabolic labeling was performed by incubation of mES cells in standard medium but adding 100 μM s^4U or s^6G (SIGMA) from a 500 mM stock solution in water. During the metabolic labeling, s^4U or s^6G containing medium was exchanged every 3 h. For the uridine chase experiment, s^4U or s^6G containing medium was discarded, cells were washed twice with 1× PBS and incubated with standard medium supplemented with 10 mM uridine (SIGMA). Cells were directly lysed in TRIzol® (Ambion) and RNA was extracted following the manufacturer instructions except that 0.1 mM final concentration of DTT was added during isopropanol precipitation. RNA was resuspended in 1 mM DTT. […]
We tested the ability of mouse embryonic stem cells to tolerate s^4U metabolic RNA-labeling after 12 h or 24 h at varying s^4U concentrations (FIG. 6A). […] Under these conditions, we detected a steady increase in s^4U-incorporation in total RNA preparation 3 h, 6 h, 12 h, and 24 h post labeling, as well as a steady decrease 3 h, 6 h, 12 h, and 24 h after uridine chase (FIG. 6B). […]

[2] = tested on: mES cells; assay: mRNA 3' end sequencing (Quant-seq/SLAM-seq) of mES cells after s^4U metabolic labeling; format: cell-based, mouse
Protocol: as §2, with “(SIGMA).” for “(SIGMA). Cells were directly lysed in TRIzol® (Ambion) and RNA was extracted following the manufacturer instructions except that 0.1 mM final concentration of DTT was added during isopropanol precipitation. RNA was resuspended in 1 mM DTT.”
For analysis of mRNA 3′ end sequencing (Quant-seq) datasets, reads were demultiplexed using Picard Tools BamIndexDecoder v1.13 allowing 1 mismatch in the barcode. Five nucleotides at the 5′ end of demultiplexed reads were trimmed. Reads were aligned to mouse genome mm10 and alignments in annotated 3′ UTRs (Gencode) were counted using SLAMdunk (Neumann & Rescheneder, t-neumann.github.io/slamdunk/; Herzog et al., Nature Methods 14, 1198-1204 (2017)). Briefly, SLAMdunk relies on NextGenMap, a flexible and fast read mapping program, and was tailored using an adapted scoring scheme eliminating T>C mismatch penalties for the mapping step. T>C containing reads and non-T>C containing reads aligning to 3′ UTRs were quantified to deduce s^4U- or unlabeled transcript abundance, respectively. […]

[3] = tested on: Drosophila S2 cells; assay: HPLC analysis of s^4U-incorporation into total RNA of Drosophila S2 cells; format: cell-based, Drosophila melanogaster; details: 500 μM s^4U, 24 h
Protocol: as §1
Upon generating libraries from size-selected total RNA of Drosophila S2 cells after s^4U metabolic labeling for 24 hours, we observed a strong accumulation of T>C conversions when compared to libraries prepared from unlabeled cells, as exemplified for the miR-184 locus, which gives rise to an abundantly expressed microRNA, miR-184-3p, and its less abundant miR*, miR-184-5p (FIG. 12A). In order to confirm this observation at the genomic scale, we aligned reads to annotated microRNA loci in the Drosophila genome and inspected the frequency of any given mutation normalized to overall T-content per miRNA (FIG. 12B). In the absence of s^4U metabolic labeling, we observed a median mutation rate of less than 0.1% for any given mutation, a rate that is consistent with Illumina-reported sequencing error rates. (Note, that iodoacetamide treatment of unlabeled total RNA had no detectable impact on small RNA abundance and mutation rate, as determined by high-throughput sequencing. See FIG. 19). […]

[4] = tested on: Drosophila S2 cells; assay: Viability of Drosophila S2 cells under s^4U labeling conditions; format: cell-based, Drosophila melanogaster; details: 500 μM, 24 h

Question: Which results are given for `O=c1[nH]c(=S)ccn1[C@@H]1O[C@H](CO)[C@@H](O)[C@H]1O` [s^4U, 4-thiouridine]?
Answer: maximum average s^4U incorporation in total RNA [1]: 1.78%; median s^4U-incorporation in mRNA (3' UTRs) ([2]; 24 h labeling): 2.56%; increase in T>C mutation rates ([2]; 24 h labeling vs unlabeled): 25 fold; labeling efficiency in total RNA [3]: 2.3%; effect on cell viability [4]: do not interfere with cell viability
